Experimental data: patent publication US11000033B2, “Ketone or oxime compound, and herbicide” (NISSAN CHEMICAL CORPORATION, priority 2014, dated 2021)

Assays:
Type in all cases: in vivo
Digitaria ciliaris = assay: Test Example 5: herbicidal effect by foliage application, plastic box (symbol F); conditions: 320 g/ha, 3 weeks after application
Method in brief: (§1)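 Leaf-applied emulsion, water-diluted to a preset herbicide dose, on two-week-old seedlings raised in a 25° C. to 30° C. greenhouse; injury rated at 3 weeks using earlier criteria.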

beet = assay: Test Example 4: effect on crop by soil treatment (symbol f); conditions: for f: beet, effect on crop grade: application herbicide amount 320 g/ha; for f: beet, effect grade on crop: 320 g/ha
Method in brief: (§2)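 Plants grew in a 25° C. to 30° C. greenhouse after spot-sowing of seeds, including beet, rapeseed, wheat and rice, into sterilized diluvial soil under roughly 1.5 cm of cover soil.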

[1] = tested on: Echinochloa oryzacola Vasing.; assay: Test Example 1: herbicidal activity, application before weed generation in submerged conditions (symbol A); conditions: application herbicide amount 320 g/ha
Method in brief: (§3)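 Application before weed emergence: an aqueous dilution of the emulsion formulation was poured onto the surface of 4 cm-deep floodwater on the day of sowing. Effect was judged after 3 weeks (greenhouse, 25–30 °C).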

Alopecurus myosuroides = assay: Test Example 4: herbicidal effect by soil treatment (symbol J)
Method in brief: (§4)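 Seeds were sown in sterilized diluvial soil, covered with about 1.5 cm of soil, and the soil surface was sprayed with a water-diluted emulsion of the compound at a predetermined rate. Plants grew in a greenhouse at 25° C. to 30° C.; effects were scored visually 3 weeks after application.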

Scirpus juncoides = assay: Test Example 1: herbicidal activity, application before weed generation in submerged conditions (symbol B); conditions: application herbicide amount 320 g/ha
Method in brief: as §3

[2] = tested on: directly sowed rice plant; assay: Test Example 3: effect on crop by foliage application, Wagner pot (symbol b); conditions: application herbicide amount 320 g/ha
Method in brief: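 Plants are raised from seed in flooded paddy conditions: water stands 0.1–0.5 cm over alluvial soil, and the pot is kept in a greenhouse at 25–30 °C. Species sown are barnyardgrass (E. crus-galli var. crus-galli), Leptochloa chinensis, Cyperus difformis and rice.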

Veronica persica = assay: Test Example 4: herbicidal effect by soil treatment (symbol R)
Method in brief: as §4

Monochoria vaginalis = assay: Test Example 2: herbicidal activity, application during weed generation in submerged conditions (symbol C); conditions: Table 23; application herbicide amount 320 g/ha; grade 0-5 by criteria of Test Example 1
Method in brief: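 Visual herbicidal ratings, taken three weeks after dosing, reflect post-emergence water-surface application to seedlings at one to two leaves. Conditions: co-sown weeds in alluvial soil flooded to 4 cm, greenhouse held at 25° C. to 30° C.; compound given as water-diluted emulsion at a fixed herbicide amount.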

transplanted rice plant = assay: Test Example 1: effect on crop, application before weed generation in submerged conditions (symbol a); conditions: application herbicide amount 320 g/ha
Method in brief: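 Rice at 2.5 leaf stage transplanted into submerged soil (4 cm depth) sown with three weed species; herbicide applied before weed emergence.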

Avena fatua = assay: Test Example 4: herbicidal effect by soil treatment (symbol I)
Method in brief: as §4

Abutilon theophrasti = assay: Test Example 4: herbicidal effect by soil treatment (symbol M)
Method in brief: as §4

Amaranthus retroflexus = assay: Test Example 4: herbicidal effect by soil treatment (symbol N)
Method in brief: as §4

rapeseed = assay: Test Example 4: effect on crop by soil treatment (symbol g); conditions: for g: rapeseed, effect on crop grade: application herbicide amount 320 g/ha; for g: rapeseed, effect grade on crop: 320 g/ha
Method in brief: as §2

soybean = assay: Test Example 4: effect on crop by soil treatment (symbol d); conditions: for d: soybean, effect on crop grade: application herbicide amount 320 g/ha; for d: soybean, effect grade on crop: 320 g/ha
Method in brief: as §2

[3] = tested on: Echinochloa crus-galli var. crus-galli; assay: Test Example 5: herbicidal effect by foliage application, plastic box (symbol H); conditions: 320 g/ha, 3 weeks after application
Method in brief: as §1

[4] = application herbicide amount 320 g/ha

| SMILES | F: Digitaria ciliaris, herbicidal effect grade (Digitaria ciliaris) | f: beet, effect on crop grade (beet) | Herbicidal effect grade, A: Echinochloa oryzacola Vasing. [1] | J: Alopecurus myosuroides, herbicidal effect grade (Alopecurus myosuroides; [4]) | Herbicidal effect grade, B: Scirpus juncoides (Scirpus juncoides) | effect on crop b (directly sowed rice plant), grade 0-5 [2] | R: Veronica persica, herbicidal effect grade (Veronica persica; [4]) | Herbicidal effect grade, C: Monochoria vaginalis (Monochoria vaginalis) | Effect grade on crop, a: transplanted rice plant (transplanted rice plant) | I: Avena fatua, herbicidal effect grade (Avena fatua; [4]) | M: Abutilon theophrasti, herbicidal effect grade (Abutilon theophrasti; [4]) | N: Amaranthus retroflexus, herbicidal effect grade (Amaranthus retroflexus; [4]) | g: rapeseed, effect on crop grade (rapeseed) | d: soybean, effect on crop grade (soybean) | H: Echinochloa crus-galli var. crus-galli, herbicidal effect grade [3] | f: beet, effect grade on crop (beet) | J: Alopecurus myosuroides, herbicidal effect grade (Alopecurus myosuroides; 320 g/ha) | R: Veronica persica, herbicidal effect grade (Veronica persica; 320 g/ha) | I: Avena fatua, herbicidal effect grade (Avena fatua; 320 g/ha) | M: Abutilon theophrasti, herbicidal effect grade (Abutilon theophrasti; 320 g/ha) | further results |
| --- | --- | --- | --- | --- | --- | --- | --- | --- | --- | --- | --- | --- | --- | --- | --- | --- | --- | --- | --- | --- | --- |
| CCOC(=O)C(CC)(C(C)=O)C1CC(O)=C(c2c(C)cc(C)cc2C)C1=O (stereo not drawn) [2-012] | 0 (Herbicidal ratio of 5% or lower (almost no effect)) | 0 (Herbicidal ratio of 5% or lower (almost no effect)) | 0 (Herbicidal ratio of 5% or lower (almost no effect)) | 0 (Herbicidal ratio of 5% or lower (almost no effect)) | 0 (Herbicidal ratio of 5% or lower (almost no effect)) | 0 (Herbicidal ratio of 5% or lower (almost no effect)) | 0 (Herbicidal ratio of 5% or lower (almost no effect)) | 0 (Herbicidal ratio of 5% or lower (almost no effect)) | 0 (Herbicidal ratio of 5% or lower (almost no effect)) | 0 (Herbicidal ratio of 5% or lower (almost no effect)) | 0 (Herbicidal ratio of 5% or lower (almost no effect)) | 0 (Herbicidal ratio of 5% or lower (almost no effect)) | 0 (Herbicidal ratio of 5% or lower (almost no effect)) | 0 (Herbicidal ratio of 5% or lower (almost no effect)) | 1 (Herbicidal ratio of 5% or higher and lower than 20%) |  |  |  |  |  |  |
| Cc1cc(C)c(C2=C(O)CC(CC(=O)C3CCCCC3)C2=O)c(C)c1 (stereo not drawn) [2-030] | 4 (Herbicidal ratio of 70% or higher and lower than 90%) | 0 (Herbicidal ratio of 5% or lower (almost no effect)) | 4 (Herbicidal ratio of 70% or higher and lower than 90%) | 3 (Herbicidal ratio of 40% or higher and lower than 70%) | 0 (Herbicidal ratio of 5% or lower (almost no effect)) | 5 (Herbicidal ratio of 90% or more (almost completely withered)) | 0 (Herbicidal ratio of 5% or lower (almost no effect)) | 0 (Herbicidal ratio of 5% or lower (almost no effect)) | 3 (Herbicidal ratio of 40% or higher and lower than 70%) | 0 (Herbicidal ratio of 5% or lower (almost no effect)) | 0 (Herbicidal ratio of 5% or lower (almost no effect)) | 0 (Herbicidal ratio of 5% or lower (almost no effect)) | 0 (Herbicidal ratio of 5% or lower (almost no effect)) | 0 (Herbicidal ratio of 5% or lower (almost no effect)) | 4 (Herbicidal ratio of 70% or higher and lower than 90%) |  |  |  |  |  |  |
| CCOC(=O)C(C(=O)c1ccccc1)C1CC(O)=C(c2c(C)cc(C)cc2C)C1=O (stereo not drawn) [2-008] | 2 (Herbicidal ratio of 20% or higher and lower than 40%) | 0 (Herbicidal ratio of 5% or lower (almost no effect)) | 0 (Herbicidal ratio of 5% or lower (almost no effect)) | 0 (Herbicidal ratio of 5% or lower (almost no effect)) | 0 (Herbicidal ratio of 5% or lower (almost no effect)) | 0 (Herbicidal ratio of 5% or lower (almost no effect)) | 0 (Herbicidal ratio of 5% or lower (almost no effect)) | 0 (Herbicidal ratio of 5% or lower (almost no effect)) | 0 (Herbicidal ratio of 5% or lower (almost no effect)) | 0 (Herbicidal ratio of 5% or lower (almost no effect)) | 0 (Herbicidal ratio of 5% or lower (almost no effect)) | 0 (Herbicidal ratio of 5% or lower (almost no effect)) | 0 (Herbicidal ratio of 5% or lower (almost no effect)) | 0 (Herbicidal ratio of 5% or lower (almost no effect)) | 3 (Herbicidal ratio of 40% or higher and lower than 70%) |  |  |  |  |  |  |
| CON=C(C)CC1CC(OC(=O)c2c(Cl)nn(C)c2Cl)=C(c2c(C)cc(C)cc2C)C1=O (stereo not drawn) [1-160] | 5 (Herbicidal ratio of 90% or more (almost completely withered)) |  | 5 (Herbicidal ratio of 90% or more (almost completely withered)) |  | 4 (Herbicidal ratio of 70% or higher and lower than 90%) | 5 (Herbicidal ratio of 90% or more (almost completely withered)) |  | 4 (Herbicidal ratio of 70% or higher and lower than 90%) | 5 (Herbicidal ratio of 90% or more (almost completely withered)) |  |  |  |  |  | 5 (Herbicidal ratio of 90% or more (almost completely withered)) | 0 (Herbicidal ratio of 5% or lower (almost no effect)) | 5 (Herbicidal ratio of 90% or more (almost completely withered)) | 0 (Herbicidal ratio of 5% or lower (almost no effect)) | 0 (Herbicidal ratio of 5% or lower (almost no effect)) | 4 (Herbicidal ratio of 70% or higher and lower than 90%) | N: Amaranthus retroflexus, herbicidal effect grade (Amaranthus retroflexus; 320 g/ha): 4 (Herbicidal ratio of 70% or higher and lower than 90%); g: rapeseed, effect grade on crop (rapeseed): 4 (Herbicidal ratio of 70% or higher and lower than 90%); d: soybean, effect grade on crop (soybean): 0 (Herbicidal ratio of 5% or lower (almost no effect)) |
| CON=C(C)CC1CC(OC(=O)N2CCCCC2)=C(c2c(C)cc(C)cc2C)C1=O (stereo not drawn) [1-151] |  |  | 5 (Herbicidal ratio of 90% or more (almost completely withered)) |  | 3 (Herbicidal ratio of 40% or higher and lower than 70%) | 5 (Herbicidal ratio of 90% or more (almost completely withered)) |  | 2 (Herbicidal ratio of 20% or higher and lower than 40%) | 4 (Herbicidal ratio of 70% or higher and lower than 90%) |  |  |  |  |  |  | 0 (Herbicidal ratio of 5% or lower (almost no effect)) | 5 (Herbicidal ratio of 90% or more (almost completely withered)) | 0 (Herbicidal ratio of 5% or lower (almost no effect)) | 3 (Herbicidal ratio of 40% or higher and lower than 70%) | 0 (Herbicidal ratio of 5% or lower (almost no effect)) | F: Digitaria ciliaris, herbicidal effect (criteria 0-5) (Digitaria ciliaris): 5 (Herbicidal ratio of 90% or more (almost completely withered)); N: Amaranthus retroflexus, herbicidal effect grade (Amaranthus retroflexus; 320 g/ha): 0 (Herbicidal ratio of 5% or lower (almost no effect)); g: rapeseed, effect grade on crop (rapeseed): 0 (Herbicidal ratio of 5% or lower (almost no effect)); d: soybean, effect grade on crop (soybean): 0 (Herbicidal ratio of 5% or lower (almost no effect)); H: Echinochloa crus-galli var. crus-galli, herbicidal effect (criteria 0-5) [3]: 5 (Herbicidal ratio of 90% or more (almost completely withered)) |
